# Measured values as given in patent publication US9751854B2 (Millennium Pharmaceuticals, Inc., priority 2014, dated 2017).
# Target: human VPS34 (Homo sapiens (Human), UniProt Q8NEB9)
# Experiment: Human VPS34 enzyme assay (Adapta TR-FRET ADP detection)
# Assay type: biochemical
# Details: IC50 range class
# human VPS34, sequence (Q8NEB9 whole entry): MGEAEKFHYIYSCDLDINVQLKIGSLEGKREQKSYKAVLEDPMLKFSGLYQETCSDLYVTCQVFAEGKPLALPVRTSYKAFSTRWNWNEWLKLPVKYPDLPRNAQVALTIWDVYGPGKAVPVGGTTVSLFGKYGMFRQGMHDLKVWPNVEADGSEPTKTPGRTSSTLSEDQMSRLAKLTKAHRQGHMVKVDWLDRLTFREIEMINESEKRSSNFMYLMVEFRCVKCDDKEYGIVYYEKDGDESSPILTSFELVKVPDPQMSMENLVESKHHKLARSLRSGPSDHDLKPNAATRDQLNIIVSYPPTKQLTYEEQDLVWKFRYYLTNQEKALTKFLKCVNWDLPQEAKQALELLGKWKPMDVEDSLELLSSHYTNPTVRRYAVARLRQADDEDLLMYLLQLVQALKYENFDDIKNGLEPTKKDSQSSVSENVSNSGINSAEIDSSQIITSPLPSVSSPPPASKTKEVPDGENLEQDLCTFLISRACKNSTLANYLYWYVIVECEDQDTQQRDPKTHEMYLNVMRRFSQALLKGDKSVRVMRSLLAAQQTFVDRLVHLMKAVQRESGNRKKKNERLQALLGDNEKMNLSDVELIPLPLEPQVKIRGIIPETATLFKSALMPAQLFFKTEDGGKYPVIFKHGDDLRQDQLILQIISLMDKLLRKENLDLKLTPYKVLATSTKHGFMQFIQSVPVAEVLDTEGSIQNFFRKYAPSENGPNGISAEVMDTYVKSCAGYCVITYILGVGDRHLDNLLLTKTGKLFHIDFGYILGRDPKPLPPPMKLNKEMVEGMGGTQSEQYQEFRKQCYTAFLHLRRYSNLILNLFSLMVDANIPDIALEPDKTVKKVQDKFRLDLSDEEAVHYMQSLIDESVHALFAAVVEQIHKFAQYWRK
row,IC50 [nM],SMILES
1,10 to 50,"CC(=O)Nc1cc(-c2cncc(N(C)S(=O)(=O)N(C)C)c2)ccn1 [Compound I-458, N-{5-[(dimethylsulfamoyl)(methyl)amino]-3,4′-bipyridin-2′-yl}acetamide]"
2,> 100,"CC(=O)Nc1cc(-c2cnc(C)c(N(C)C(=O)c3ccc(F)cc3F)c2)ccn1 [Compound I-398, N-(2′-acetamido-6-methyl-3,4′-bipyridin-5-yl)-2,4-difluoro-N-methylbenzamide]"
3,10 to 50,"CC(=O)Nc1cc(-c2cnc(Cl)c(N3CCCNS3(=O)=O)c2)ccn1 [Compound I-448, N-[6-chloro-5-(1,1-dioxido-1,2,6-thiadiazinan-2-yl)-3,4′-bipyridin-2′-yl]acetamide]"
4,10 to 50,"CC(=O)Nc1cc(-c2cnc(Cl)c(NS(=O)(=O)N3CC4CCC3C4)c2C)ccn1 (centres unmarked) [Compound I-477, N-{5-[(2-azabicyclo[2.2.1]hept-2-ylsulfonyl)amino]-6-chloro-4-methyl-3,4′-bipyridin-2′-yl}acetamide]"
5,10 to 50,"CC(=O)Nc1cc(-c2cnc(C)c(NS(=O)(=O)c3cccc(C)c3F)c2)ccn1 [Compound I-339, N-(5-{[(2-fluoro-3-methylphenyl)sulfonyl]amino}-6-methyl-3,4′-bipyridin-2′-yl)acetamide]"
6,< 10,"CC(=O)Nc1cc(-c2cnc(C)c(NS(=O)(=O)c3ccccc3F)c2)ccn1 [Compound I-144, N-[5-{[(2-fluorophenyl)sulfonyl]amino}-6-methyl-3,4′-bipyridin-2′-yl)acetamide]"
7,10 to 50,"Cc1ncc(-c2ccnc(NC(=O)N3CCCC3)c2)cc1NS(=O)(=O)c1ccc(F)cc1F [Compound I-313, N-(5-{[(2,4-difluorophenyl)sulfonyl]amino}-6-methyl-3,4′-bipyridin-2′-yl)pyrrolidine-1-carboxamide]"
8,< 10,"COc1ccccc1S(=O)(=O)Nc1cc(-c2ccnc(NC(C)=O)c2)cnc1C [Compound I-74, N-(5-{[(2-methoxyphenyl)sulfonyl]amino}-6-methyl-3,4′-bipyridin-2′-yl)acetamide]"
9,10 to 50,"CC(=O)Nc1cc(-c2cnc(C)c(NS(=O)(=O)c3cc(Cl)sc3Cl)c2)ccn1 [Compound I-465, N-[5-{[(2,5-dichloro-3-thienyl)sulfonyl]amino}-6-methyl-3,4′-bipyridin-2′-yl)acetamide]"
10,< 10,"CN(C)S(=O)(=O)Nc1cc(-c2ccnc(Nc3ccnc(C4CC4)n3)c2)cn2nccc12 [Compound I-427, N′-(6-{2-[(2-cyclopropylpyrimidin-4-yl)amino]pyridin-4-yl}pyrazolo[1,5-a]pyridin-4-yl)-N,N-dimethylsulfuric diamide]"
11,> 100,"CC(=O)Nc1cc(-c2cnc(N)c(C(=O)NC(=N)N)c2)ccn1 [Compound I-409, 2′-acetamido-6-amino-N-carbamimidoyl-3,4′-bipyridine-5-carboxamide]"
12,10 to 50,"Cc1nccc(Nc2cc(-c3cnc(C)c(Oc4ccccc4)c3)ccn2)n1 [Compound I-475, 6-methyl-N-(2-methylpyrimidin-4-yl)-5-phenoxy-3,4′-bipyridin-2′-amine]"
13,> 100,"Cc1nccc(Nc2cc(-c3cnc(C)c(C(N)=O)c3)ccn2)n1 [Compound I-280, 6-methyl-2′-[(2-methylpyrimidin-4-yl)amino]-3,4′-bipyridine-5-carboxamide]"
14,10 to 50,"Cc1nccc(Nc2cc(-c3cncc(C(C)Oc4ccccc4Cl)c3)ccn2)n1 (centres unmarked) [Compound I-336, 5-[1-(2-chlorophenoxy)ethyl]-N-(2-methylpyrimidin-4-yl)-3,4′-bipyridin-2′-amine]"
15,< 10,"CC(=O)Nc1cc(-c2cnc(N)c(C(=O)Nc3cccnc3)c2)ccn1 [Compound I-91, 2′-acetamido-6-amino-N-(pyridin-3-yl)-3,4′-bipyridine-5-carboxamide]"
16,50 to 100,"CC(=O)Nc1cc(-c2cnc3c(c2)S(=O)(=O)NCCO3)ccn1 [Compound I-484, N-(4-(1,1-dioxido-3,4-dihydro-2H-pyrido[2,3-b][1,4,5]oxathiazepin-8-yl)pyridin-2-yl)acetamide]"
17,< 10,"CC(=O)Nc1cc(-c2cnc(C)c(NS(=O)(=O)c3ccc(C(F)(F)F)cc3)c2)ccn1 [Compound I-90, N-[6-methyl-5-({[4-trifluoromethyl)phenyl]sulfonyl}amino-3,4′-bipyridin-2′-yl]acetamide]"
18,50 to 100,"CC(=O)Nc1cc(-c2cnc(N)c(S(=O)(=O)O)c2)ccn1 [Compound I-122, 2′-acetamido-6-amino-3,4′-bipyridine-5-sulfonic acid]"
19,< 10,"CCN(C)S(=O)(=O)Nc1cc(-c2ccnc(NC(C)=O)c2)cnc1C [Compound I-273, N-(5-{[ethyl(methyl)sulfamoyl]amino}-6-methyl-3,4′-bipyridin-2′-yl)acetamide]"
20,> 100,"CC(=O)Nc1cc(-c2cc(S(C)(=O)=O)c[n+]([O-])c2)ccn1 [Compound I-191, N-{4-[5-(methylsulfonyl)-1-oxidopyridin-3-yl]pyridin-2-yl}acetamide]"
21,< 10,"CC(=O)Nc1cc(-c2cnc(N)c(S(=O)(=O)Nc3cccnc3)c2)ccn1 [Compound I-204, N-[6-amino-5-(pyridin-3-ylsulfamoyl)-3,4′-bipyridin-2′-yl]acetamide]"

row,IC50 [nM],SMILES
1,< 10,"CC(=O)Nc1cc(-c2cnc(C)c(NS(=O)(=O)c3cccc(C(F)(F)F)c3)c2)ccn1 [Compound I-168, N-[6-methyl-5-({[3-(trifluoromethyl)phenyl]sulfonyl}amino)-3,4′-bipyridin-2′-yl]acetamide]"
2,10 to 50,"CCOC(=O)Nc1cc(-c2cnc(C)c(NS(=O)(=O)N(C)C)c2)ccn1 [Compound I-364, ethyl {5-[(dimethylsulfamoyl)amino]-6-methyl-3,4′-bipyridin-2′-yl}carbamate]"
3,< 10,"CC(=O)Nc1cc(-c2ccc(S(=O)(=O)Nc3cc(-c4ccnc(NC(C)=O)c4)cnc3C)c(F)c2)ccn1 [Compound I-86, N-(4-{4-[(2′-acetamido-6-methyl-3,4′-bipyridin-5-yl)sulfamoyl]-3-fluorophenyl}pyridin-2-yl)acetamide]"
4,< 10,"CC(=O)Nc1cc(-c2cnc(N)c(S(=O)(=O)Nc3ccc(Cl)cc3)c2)ccn1 [Compound I-207, N-{6-amino-5-[(4-chlorophenyl)sulfamoyl]-3,4′-bipyridin-2′-yl}acetamide]"
5,< 10,"CNc1ncc(-c2ccnc(NC(C)=O)c2)cc1S(=O)(=O)Nc1ccc(F)cc1F [Compound I-63, N-{5-[(2,4-difluorophenyl)sulfamoyl]-6-(methylamino)-3,4′-bipyridin-2′-yl}acetamide]"
6,50 to 100,"Cc1cc(Nc2cc(-c3cnc(Cl)c(NS(=O)(=O)c4ccc(F)cc4F)c3C)ccn2)ccn1 [Compound I-272, N-{6-chloro-4-methyl-2′-[(2-methylpyridin-4-yl)amino]-3,4′-bipyridin-5-yl}-2,4-difluorobenzenesulfonamide]"
7,10 to 50,"Cc1ccc2ccc(Nc3cc(-c4cnc(C)c(NS(=O)(=O)c5ccc(F)cc5F)c4)ccn3)nc2n1 [Compound I-235, 2,4-difluoro-N-{6-methyl-2′-[(7-methyl-1,8-naphthyridin-2-yl)amino]-3,4′-bipyridin-5-yl}benzenesulfonamide]"
8,10 to 50,"COC(=O)Nc1cc(-c2cncc(S(=O)(=O)N3CCOCC3)c2)ccn1 [Compound I-332, methyl [5-(morpholin-4-ylsulfonyl)-3,4′-bipyridin-2′-yl]carbamate]"
9,< 10,"CNc1ncc(-c2ccnc(NC(C)=O)c2)cc1S(=O)(=O)N(C(C)C)C(C)C [Compound I-173, N-[5-(diisopropylsulfamoyl)-6-(methylamino)-3,4′-bipyridin-2′-yl]acetamide]"
10,10 to 50,"CCOC(=O)Nc1cc(-c2cnc(Cl)c(NS(=O)(=O)c3ccc(F)cc3F)c2C)ccn1 [Compound I-383, ethyl (6-chloro-5-{[(2,4-difluorophenyl)sulfonyl]amino}-4-methyl-3,4′-bipyridin-2′-yl)carbamate]"
11,50 to 100,"CC(=O)Nc1cc(-c2cnc(N)c(S(=O)(=O)CCc3ccccc3)c2)ccn1 [Compound I-126, N-[6-amino-5-[(2-phenylethyl)sulfonyl]-3,4′-bipyridin-2′-yl]acetamide]"
12,50 to 100,"CC(=O)Nc1cc(-c2cnc3cc[nH]c3c2)ccn1 [Compound I-17, N-[4-(1H-pyrrolo[3,2-b]pyridin-6-yl)pyridin-2-yl]acetamide]"
13,10 to 50,"Cc1nccc(Nc2cc(-c3cnc(Cl)c(C(=O)O)c3C)ccn2)n1 [Compound I-402, 6-chloro-4-methyl-2′-[(2-methylpyrimidin-4-yl)amino]-3,4′-bipyridine-5-carboxylic acid]"
14,10 to 50,"CC(=O)Nc1cc(-c2cnc3c(c2)c(S(=O)(=O)N2CCCC2)cn3C)ccn1 [Compound I-151, N-{4-[1-methyl-3-(pyrrolidin-1-ylsulfonyl)-1H-pyrrolo[2,3-b]pyridin-5-yl]pyridin-2-yl}acetamide]"
15,10 to 50,"COc1ncc(-c2ccnc(NC(C)=O)c2)cc1S(=O)(=O)NC1CCC1 [Compound I-426, N-[5-(cyclobutylsulfamoyl)-6-methoxy-3,4′-bipyridin-2′-yl]acetamide]"
16,10 to 50,"Cc1nccc(Nc2cc(-c3cnc(C)c(C(=O)N4CC(F)(F)C4)c3)ccn2)n1 [Compound I-221, (3,3-difluoroazetidin-1-yl){6-methyl-2′-[(2-methylpyrimidin-4-yl)amino]-3,4′-bipyridin-5-yl]methanone]"
17,10 to 50,CC(=O)Nc1cc(-c2cncc(S(=O)(=O)NC3CC3)c2)ccn1 [Compound I-338]
18,50 to 100,"CC(=O)Nc1cc(-c2cncc(N3CCCS3(=O)=O)c2)ccn1 [Compound I-192, N-[5-(1,1-dioxidoisothiazolidin-2-yl)-3,4′-bipyridin-2′-yl]acetamide]"
19,< 10,"CNc1ncc(-c2ccnc(NC(C)=O)c2)cc1S(=O)(=O)Nc1ccccc1 [Compound I-100, N-[6-(methylamino)-5-(phenylsulfamoyl)-3,4′-bipyridin-2′-yl]acetamide]"
20,> 100,"COc1ncc(-c2ccnc(NC(C)=O)c2)c(C)c1NS(=O)(=O)N(C)C [Compound I-268, N-{5-[(dimethylsulfamoyl)amino]-6-methoxy-4-methyl-3,4′-bipyridin-2′-yl}acetamide]"
